Experimental data as given in patent publication US20080009418A1, “Selective Inhibitors” (Alchemia LTD., priority 2004, published 2008).

Key:
Human Melanocortin (MC3) = molecular target: T1, Human Melanocortin (MC3) (Homo sapiens, UniProt P41968); assay: Radioligand binding, human melanocortin MC3 membranes, FlashPlate, [125I]-NDP-αMSH; conditions: compound at 10 μM; for A3: inhibition of radioligand binding: [125I]-NDP-αMSH, FlashPlate
T1 construct: purchased Perkin Elmer Biosignal
How it was run: (§1)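 Cloned human receptor membranes were coated onto FlashPlate wells and incubated with radioligand and compound (added from a 0.5 mM DMSO daughter plate) for 1 hour at room temperature in the dark. Scintillation counting gave percent inhibition, with DMSO defining total and reference ligand defining non-specific binding.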

Human κ-Opioid (KOP) = molecular target: T2, Human κ-Opioid (KOP) (Homo sapiens, UniProt P41145); assay: Radioligand binding, human κ-opioid (KOP) membranes, filtration, [3H]-Diprenorphine; conditions: compound at 10 μM; for A2: inhibition of radioligand binding: [3H]-Diprenorphine, filtration
T2 construct: purchased Perkin Elmer Biosignal
T2 sequence (P41145 whole entry): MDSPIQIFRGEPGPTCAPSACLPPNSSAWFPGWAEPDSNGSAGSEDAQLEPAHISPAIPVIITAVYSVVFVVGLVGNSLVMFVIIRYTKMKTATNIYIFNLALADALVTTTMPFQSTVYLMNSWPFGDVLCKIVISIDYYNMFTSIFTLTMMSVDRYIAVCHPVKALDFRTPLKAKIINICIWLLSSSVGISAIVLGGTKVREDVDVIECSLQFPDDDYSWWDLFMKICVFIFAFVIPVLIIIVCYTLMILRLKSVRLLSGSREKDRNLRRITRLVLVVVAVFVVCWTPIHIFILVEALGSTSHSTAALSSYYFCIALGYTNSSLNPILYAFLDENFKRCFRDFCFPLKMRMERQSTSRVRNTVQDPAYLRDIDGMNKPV
How it was run: (§2)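 Filtration binding on cloned human receptor membranes (1 Unit/well), [125I]-Substance P for NK1 and [3H]-Diprenorphine for KOP, 1 h at room temperature. Filters PEI-presoaked, washed with cold 50 mM Tris-HCl pH 7.4, counted by scintillation; percent inhibition calculated, reference ligand defining non-specific binding.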

Human μ-opioid (MOP) = molecular target: T3, Human μ-opioid (MOP) (Homo sapiens, UniProt P35372); assay: Radioligand binding, human μ-opioid (MOP) membranes, FlashPlate, [3H]-Naloxone; conditions: compound at 10 μM; for A7: inhibition of radioligand binding: [3H]-Naloxone, FlashPlate
T3 construct: purchased Perkin Elmer Biosignal
T3 sequence (P35372 whole entry): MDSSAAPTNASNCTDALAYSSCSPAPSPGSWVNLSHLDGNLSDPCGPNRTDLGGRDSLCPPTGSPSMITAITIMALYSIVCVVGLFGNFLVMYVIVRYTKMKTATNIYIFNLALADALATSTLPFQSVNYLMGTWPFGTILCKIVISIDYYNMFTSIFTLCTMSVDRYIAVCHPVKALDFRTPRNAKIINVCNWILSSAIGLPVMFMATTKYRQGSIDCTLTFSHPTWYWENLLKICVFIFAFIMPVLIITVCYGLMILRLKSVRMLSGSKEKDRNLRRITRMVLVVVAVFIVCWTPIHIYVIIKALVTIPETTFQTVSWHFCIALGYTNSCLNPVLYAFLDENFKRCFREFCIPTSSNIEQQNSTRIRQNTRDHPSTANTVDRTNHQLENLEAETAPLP
How it was run: as §1

Human δ-opioid (DOP) = molecular target: T4, Human δ-opioid (DOP) (Homo sapiens, UniProt P41143); assay: Radioligand binding, human δ-opioid (DOP) membranes, FlashPlate, [3H]-Bremazocine; conditions: compound at 10 μM; for A1: inhibition of radioligand binding: [3H]-Bremazocine, FlashPlate
T4 construct: purchased Perkin Elmer Biosignal
T4 sequence (P41143 whole entry): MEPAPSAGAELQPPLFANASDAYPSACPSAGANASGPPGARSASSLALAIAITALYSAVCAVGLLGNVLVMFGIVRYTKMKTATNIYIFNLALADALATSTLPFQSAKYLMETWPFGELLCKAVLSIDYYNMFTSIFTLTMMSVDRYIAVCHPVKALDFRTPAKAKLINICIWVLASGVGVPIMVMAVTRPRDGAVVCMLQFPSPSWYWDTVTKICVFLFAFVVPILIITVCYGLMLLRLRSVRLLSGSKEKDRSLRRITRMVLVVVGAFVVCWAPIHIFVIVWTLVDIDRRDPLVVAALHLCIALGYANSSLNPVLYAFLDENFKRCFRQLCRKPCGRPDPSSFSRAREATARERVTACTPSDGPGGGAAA
How it was run: as §1

Human melanocortin (MC5) = molecular target: T5, Human melanocortin (MC5) (Homo sapiens, UniProt P33032); assay: Radioligand binding, human melanocortin MC5 membranes, FlashPlate, [125I]-NDP-αMSH; conditions: compound at 10 μM; for A5: inhibition of radioligand binding: [125I]-NDP-αMSH, FlashPlate
T5 construct: purchased Perkin Elmer Biosignal
T5 sequence (P33032 whole entry): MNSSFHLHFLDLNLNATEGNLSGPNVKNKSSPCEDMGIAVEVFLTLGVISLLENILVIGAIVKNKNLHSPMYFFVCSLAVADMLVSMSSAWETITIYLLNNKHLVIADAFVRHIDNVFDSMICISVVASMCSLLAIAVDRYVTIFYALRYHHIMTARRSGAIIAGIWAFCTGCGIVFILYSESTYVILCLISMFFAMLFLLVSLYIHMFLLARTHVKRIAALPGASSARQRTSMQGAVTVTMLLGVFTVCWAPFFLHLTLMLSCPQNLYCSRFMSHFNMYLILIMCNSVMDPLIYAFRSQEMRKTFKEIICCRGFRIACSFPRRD
How it was run: as §1

[1] = molecular target: T6, Human melanin-concentrating hormone (MCH1) (Homo sapiens, UniProt Q99705); assay: Radioligand binding, human melanin-concentrating hormone MCH1 membranes, FlashPlate, [125I]-S36057; conditions: compound at 10 μM; for A6: inhibition of radioligand binding: [125I]-S36057, FlashPlate
T6 construct: purchased Perkin Elmer Biosignal
T6 sequence (Q99705 whole entry): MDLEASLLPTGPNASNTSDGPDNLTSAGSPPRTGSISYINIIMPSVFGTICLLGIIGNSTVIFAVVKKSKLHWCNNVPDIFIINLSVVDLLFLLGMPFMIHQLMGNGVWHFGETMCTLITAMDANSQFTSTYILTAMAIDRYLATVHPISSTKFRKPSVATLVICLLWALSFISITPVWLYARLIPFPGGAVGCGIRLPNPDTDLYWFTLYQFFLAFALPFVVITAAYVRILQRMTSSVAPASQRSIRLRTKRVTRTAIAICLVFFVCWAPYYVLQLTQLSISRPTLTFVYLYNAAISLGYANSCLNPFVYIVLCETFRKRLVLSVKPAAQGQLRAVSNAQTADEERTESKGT
How it was run: as §1

Mouse urotensin (mUR2) = molecular target: T7, Mouse urotensin (mUR2) (Mus musculus, UniProt Q8VIH9); assay: Radioligand binding, mouse urotensin mUR2 membranes, FlashPlate, [125I]-Urotensin II; conditions: compound at 10 μM; for A11: inhibition of radioligand binding: [125I]-Urotensin II, FlashPlate
T7 construct: purchased Perkin Elmer Biosignal
T7 sequence (Q8VIH9 1-385): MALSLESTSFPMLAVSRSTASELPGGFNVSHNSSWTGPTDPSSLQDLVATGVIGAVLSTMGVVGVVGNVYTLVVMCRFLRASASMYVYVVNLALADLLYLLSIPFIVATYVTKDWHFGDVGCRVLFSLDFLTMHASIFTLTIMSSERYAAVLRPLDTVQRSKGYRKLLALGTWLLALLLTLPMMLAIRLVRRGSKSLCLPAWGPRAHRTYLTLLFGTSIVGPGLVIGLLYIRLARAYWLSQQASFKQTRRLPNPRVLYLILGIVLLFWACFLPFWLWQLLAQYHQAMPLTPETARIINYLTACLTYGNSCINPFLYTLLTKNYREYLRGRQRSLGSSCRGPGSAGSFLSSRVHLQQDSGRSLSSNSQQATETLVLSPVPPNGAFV
How it was run: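 Cloned mouse urotensin (mUR2) receptor membranes from Perkin Elmer Biosignal were immobilized in FlashPlate microplates using a proprietary coating. Each well got 19.5 μl buffer, then 0.5 μl of DMSO, reference ligand, or compound. Adding 5 μl of [125I]-Urotensin II, diluted to 5× final concentration in binding buffer, started binding. Plates were sealed with TopSeal-A and incubated 1 hour at room temperature in the dark. Wells were counted for 30 seconds each on a TopCount after a 60-second delay, and percentage inhibition was calculated.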

Human neurokinin (NK1) = molecular target: T8, Human neurokinin (NK1) (Homo sapiens, UniProt P25103); assay: Radioligand binding, human neurokinin NK1 membranes, filtration, [125I]-Substance P; conditions: compound at 10 μM; for A8: inhibition of radioligand binding: [125I]-Substance P, filtration
T8 construct: purchased Perkin Elmer Biosignal
T8 sequence (P25103 whole entry): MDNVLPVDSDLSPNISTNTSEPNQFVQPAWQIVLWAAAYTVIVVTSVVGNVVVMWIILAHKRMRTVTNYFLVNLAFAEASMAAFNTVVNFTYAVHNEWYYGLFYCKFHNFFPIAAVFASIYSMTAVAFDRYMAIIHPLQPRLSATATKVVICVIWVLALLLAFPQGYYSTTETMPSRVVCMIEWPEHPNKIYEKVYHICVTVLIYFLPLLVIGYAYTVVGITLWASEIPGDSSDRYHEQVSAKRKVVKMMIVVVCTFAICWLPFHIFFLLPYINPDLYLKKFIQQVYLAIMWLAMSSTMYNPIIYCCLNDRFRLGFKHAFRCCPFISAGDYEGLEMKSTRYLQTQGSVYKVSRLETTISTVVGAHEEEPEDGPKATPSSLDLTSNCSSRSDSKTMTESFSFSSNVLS
How it was run: as §2

Human opioid (ORL1) = molecular target: T9, Human opioid (ORL1) (Homo sapiens, UniProt P41146); assay: Radioligand binding, human opioid ORL1 membranes, FlashPlate, [125I]-Nociceptin; conditions: compound at 10 μM; for A10: inhibition of radioligand binding: [125I]-Nociceptin, FlashPlate
T9 construct: purchased Perkin Elmer Biosignal
T9 sequence (P41146 whole entry): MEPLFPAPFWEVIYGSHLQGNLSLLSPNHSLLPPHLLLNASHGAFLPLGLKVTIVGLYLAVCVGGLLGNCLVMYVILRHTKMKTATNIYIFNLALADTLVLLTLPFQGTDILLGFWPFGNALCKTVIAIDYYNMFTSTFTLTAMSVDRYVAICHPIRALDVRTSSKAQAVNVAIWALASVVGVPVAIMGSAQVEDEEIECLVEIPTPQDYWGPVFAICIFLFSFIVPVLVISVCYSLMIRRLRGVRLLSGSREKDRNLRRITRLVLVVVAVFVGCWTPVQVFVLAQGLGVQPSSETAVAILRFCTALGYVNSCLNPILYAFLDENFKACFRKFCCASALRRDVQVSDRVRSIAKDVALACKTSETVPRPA
How it was run: as §1

Human Melanocortin (MC4) = molecular target: T10, Human Melanocortin (MC4) (Homo sapiens, UniProt P32245); assay: Radioligand binding, human melanocortin MC4 membranes, FlashPlate, [125I]-NDP-αMSH; conditions: compound at 10 μM; for A4: inhibition of radioligand binding: [125I]-NDP-αMSH, FlashPlate
T10 construct: purchased Perkin Elmer Biosignal
T10 sequence (P32245 whole entry): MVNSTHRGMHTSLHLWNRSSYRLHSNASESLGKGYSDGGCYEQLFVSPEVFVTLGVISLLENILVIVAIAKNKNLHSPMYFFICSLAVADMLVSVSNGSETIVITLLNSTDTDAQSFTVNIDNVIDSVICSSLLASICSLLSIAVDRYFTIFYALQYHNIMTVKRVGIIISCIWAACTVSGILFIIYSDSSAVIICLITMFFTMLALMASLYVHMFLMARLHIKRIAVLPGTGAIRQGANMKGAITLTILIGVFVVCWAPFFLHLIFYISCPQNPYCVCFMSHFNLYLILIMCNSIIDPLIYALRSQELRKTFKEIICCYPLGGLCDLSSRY
How it was run: as §1

[2] = molecular target: T11, Human neuropeptide Y (NPY-Y1) (Homo sapiens, UniProt P25929); assay: Radioligand binding, human neuropeptide Y NPY-Y1 membranes, FlashPlate, [125I]-PYY; conditions: compound at 10 μM; for A9: inhibition of radioligand binding: [125I]-PYY, FlashPlate
T11 construct: purchased Perkin Elmer Biosignal
T11 sequence (P25929 1-384): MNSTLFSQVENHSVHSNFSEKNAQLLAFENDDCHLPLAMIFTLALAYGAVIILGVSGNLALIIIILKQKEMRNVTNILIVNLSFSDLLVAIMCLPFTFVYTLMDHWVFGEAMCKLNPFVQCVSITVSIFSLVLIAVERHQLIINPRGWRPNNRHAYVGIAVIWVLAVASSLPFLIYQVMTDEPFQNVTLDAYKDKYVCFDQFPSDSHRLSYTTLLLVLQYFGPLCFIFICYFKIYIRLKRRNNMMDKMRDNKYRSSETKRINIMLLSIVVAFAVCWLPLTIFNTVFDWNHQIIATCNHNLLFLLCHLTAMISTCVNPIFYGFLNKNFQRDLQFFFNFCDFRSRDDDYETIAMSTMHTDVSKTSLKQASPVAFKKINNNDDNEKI
How it was run: as §1

T1 sequence (P41968 whole entry): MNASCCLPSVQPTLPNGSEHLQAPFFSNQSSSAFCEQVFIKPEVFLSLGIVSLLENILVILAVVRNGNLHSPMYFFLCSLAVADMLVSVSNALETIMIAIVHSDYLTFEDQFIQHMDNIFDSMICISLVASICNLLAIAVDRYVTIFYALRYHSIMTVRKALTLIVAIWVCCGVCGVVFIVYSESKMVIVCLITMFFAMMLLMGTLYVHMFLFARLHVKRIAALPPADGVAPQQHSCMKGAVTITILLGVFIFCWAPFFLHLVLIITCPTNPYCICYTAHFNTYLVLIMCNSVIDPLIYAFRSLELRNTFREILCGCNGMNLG

Row | Compound | A3: inhibition of radioligand binding (Human Melanocortin (MC3)) | A2: inhibition of radioligand binding (Human κ-Opioid (KOP)) | A7: inhibition of radioligand binding (Human μ-opioid (MOP)) | A1: inhibition of radioligand binding (Human δ-opioid (DOP)) | A5: inhibition of radioligand binding (Human melanocortin (MC5)) | A6: inhibition of radioligand binding [1] | A11: inhibition of radioligand binding (Mouse urotensin (mUR2)) | A8: inhibition of radioligand binding (Human neurokinin (NK1)) | A10: inhibition of radioligand binding (Human opioid (ORL1)) | A4: inhibition of radioligand binding (Human Melanocortin (MC4)) | A9: inhibition of radioligand binding [2] | further results
1 | COC[C@H]1OC(OCCc2ccccc2)[C@H](NC(=O)CCNC(=N)N)[C@@H](OCc2ccccc2)[C@@H]1O (stereo partly drawn) [compound 46] |  |  |  |  |  |  |  |  |  |  |  | A3 radioligand binding inhibition (Human Melanocortin (MC3); human melanocortin MC3 membranes): − (“−” indicates less than 50% inhibition at 10 μM); A2 radioligand binding inhibition (Human κ-Opioid (KOP); human κ-opioid (KOP) membranes): − (“−” indicates less than 50% inhibition at 10 μM); A7 radioligand binding inhibition (Human μ-opioid (MOP); human μ-opioid (MOP) membranes): − (“−” indicates less than 50% inhibition at 10 μM); A1 radioligand binding inhibition (Human δ-opioid (DOP); human δ-opioid (DOP) membranes): − (“−” indicates less than 50% inhibition at 10 μM); A5 radioligand binding inhibition (Human melanocortin (MC5); human melanocortin MC5 membranes): − (“−” indicates less than 50% inhibition at 10 μM); A6 radioligand binding inhibition ([1]; human MCH1 membranes): − (“−” indicates less than 50% inhibition at 10 μM); A11 radioligand binding inhibition (Mouse urotensin (mUR2); mouse urotensin mUR2 membranes): − (“−” indicates less than 50% inhibition at 10 μM); A8 radioligand binding inhibition (Human neurokinin (NK1); human neurokinin NK1 membranes): + (“+” indicates greater than 50% inhibition at 10 μM); A10 radioligand binding inhibition (Human opioid (ORL1); human ORL1 membranes): − (“−” indicates less than 50% inhibition at 10 μM); A4 radioligand binding inhibition (Human Melanocortin (MC4); human melanocortin MC4 membranes): − (“−” indicates less than 50% inhibition at 10 μM); A9 radioligand binding inhibition ([2]; human NPY-Y1 membranes): − (“−” indicates less than 50% inhibition at 10 μM)
2 | COCC1OC(OCc2ccc3ccccc3c2)C(NC(=O)CCNC(=N)N)C(OCc2ccc(-c3ccccc3)cc2)C1O (stereo not drawn) [compound 244] | + (“+” indicates greater than 50% inhibition at 10 μM) | − (“−” indicates less than 50% inhibition at 10 μM) | − (“−” indicates less than 50% inhibition at 10 μM) | − (“−” indicates less than 50% inhibition at 10 μM) | + (“+” indicates greater than 50% inhibition at 10 μM) | + (“+” indicates greater than 50% inhibition at 10 μM) | − (“−” indicates less than 50% inhibition at 10 μM) | + (“+” indicates greater than 50% inhibition at 10 μM) | − (“−” indicates less than 50% inhibition at 10 μM) | + (“+” indicates greater than 50% inhibition at 10 μM) | + (“+” indicates greater than 50% inhibition at 10 μM) | 
3 | COCC1OC(OCc2ccccc2)C(NC(=O)CCCNC(=N)N)C(OCc2ccc3ccccc3c2)C1O (stereo not drawn) [compound 193] | + (“+” indicates greater than 50% inhibition at 10 μM) | − (“−” indicates less than 50% inhibition at 10 μM) | − (“−” indicates less than 50% inhibition at 10 μM) | − (“−” indicates less than 50% inhibition at 10 μM) | + (“+” indicates greater than 50% inhibition at 10 μM) | + (“+” indicates greater than 50% inhibition at 10 μM) | − (“−” indicates less than 50% inhibition at 10 μM) | + (“+” indicates greater than 50% inhibition at 10 μM) | − (“−” indicates less than 50% inhibition at 10 μM) | + (“+” indicates greater than 50% inhibition at 10 μM) | − (“−” indicates less than 50% inhibition at 10 μM) | 
